Legend:
[1] = tested on: phosphorylation of mTOR in hPASMCs; test: Western blot of mTOR phosphorylation in PDGF-stimulated hPASMCs; details: concentration not given, 1 h, then PDGF 10 ng/mL 1 h
hPASMCs = test: Cell proliferation assay (Cell Counting Kit-8) of PDGF-stimulated hPASMCs; details: 0.1–10 µM compound, PDGF 10 ng/mL, 72 h
Experimental: Human pulmonary artery SMCs (hPASMCs) were cultured in Humedia-SG2 (Kurabo, Osaka, Japan) until stimulation and were plated in 96-well plates at 2.5 × 10^3 cells/well in serum-starved medium (Humedia-SB supplemented with 1% fetal bovine serum [FBS] and antibiotics [Kurabo]). […] The proliferation of hPASMCs was evaluated using a Cell Counting Kit-8 (Dojindo Laboratories, Kumamoto, Japan).
hPASMCs were purchased from Kurabo (Osaka, Japan). The cells were cultured in
6-cm Petri dishes coated with fibronectin (Corning, Corning, NY, USA) and Humedia-
SG2 (Kurabo) at 37 °C and 5% CO2 in a humidified air incubator until the other assays
2.4. Cell Proliferation Analysis
hPASMCs were cultured in Humedia-SG2 (Kurabo) until stimulation and were
plated in 96-well plates at 2.5 × 10^3 cells/well in serum-starved medium (Humedia-SB sup-
plemented with 1% FBS and antibiotics [Kurabo]). Then, hPASMCs were incubated with
The proliferation of hPASMCs was evaluated using Cell Counting
Kit-8 assays (Dojindo Laboratories, Kumamoto, Japan) according to the manufacturer’s

[2] = tested on: phosphorylation of MLC in hPASMCs; test: Western blot of MLC phosphorylation in ET-1-stimulated hPASMCs; details: then ET-1 0.1 µM 1 h
Experimental: Before stimulation, 2 × 10^5 hPASMCs were cultured with serum-starved medium (Humedia-SB containing 1% FBS and antibiotics [Kurabo]), followed by stimulation with serum-starved medium containing 0.1 µM ET-1 or 10 ng/mL recombinant PDGF and treatment with different reagents. The isolated proteins were separated and analyzed by western blotting.
proteins were then isolated with RIPA buffer (25 mM Tris-HCl [pH 7.6], 150 mM NaCl,
1% NP-40, 1% sodium deoxycholate, and 0.1% sodium dodecyl sulfate) containing prote-
ase inhibitors (Protease Inhibitor Cocktail; Nacalai Tesque, Kyoto, Japan) and phosphatase
inhibitors (PhosSTOP; Roche, Basel, Switzerland). Proteins from each sample were sepa-
rated by sodium dodecyl sulfate polyacrylamide gel electrophoresis and transferred onto
polyvinylidene difluoride (PVDF) membranes. The membranes were then blocked with
5% bovine serum albumin diluted in Tris-buffered solution containing 0.05% Tween 20
(TBS-T) for 1 hour at room temperature. The blocked membranes were incubated with
primary antibodies at 4°C overnight, followed by washing with TBS-T. The membranes
were then incubated with a secondary antibody for 1 h at room temperature. Bands were
visualized by a chemiluminescence reaction using Pierce ECL Western Blotting (Thermo
Fisher Scientific, Waltham, MA, CSA) and LAS-4000 (Fuji Film, Tokyo, Japan).
tein expression was normalized to that of -actin.

[3] = tested on: phosphorylated MYPT1 in hPASMCs; test: Western blot of MYPT1 phosphorylation (Thr696) in ET-1-stimulated hPASMCs; type: cell-based, human; details: compound 1 hour, then ET-1 0.1 µM 1 hour, ET-1 did not increase p-MYPT1

SMILES	Phosphorylation of mTOR (phospho-/total mTOR) [1]	Proliferation of hPASMCs induced by PDGF (hPASMCs)	Phosphorylation of MLC (p-MLC/total MLC) ([2]; 10 μM compound 1 h)	Ratio of p-MYPT1 (Thr696) to total MYPT1, difference versus ET-1 without compound [3]	Phosphorylation of MLC (p-MLC/total MLC) ([2]; concentration not given, 1 h)
O=S(=O)(c1cccc2cnccc12)N1CCCNCC1 [Fasudil]	did not have a suppressive effect	observed only at the highest concentration	significantly decreased		
COc1ccccc1Oc1c(NS(=O)(=O)c2ccc(C(C)(C)C)cc2)nc(-c2ncccn2)nc1OCCO [Bosentan]				insignificant	the difference did not reach significant levels
O=c1cc(N2CCOCC2)oc2c(-c3ccccc3)cccc12 [LY294002]	significantly reduced	suppressed the proliferation of hPASMCs induced by stimulation with PDGF in a concentration-dependent manner			
